{"source": "patent US20050250715A1", "about": "“Remedy” (priority 2002, published 2005)", "key": {"NGF": {"system": "NGF", "experiment": "Enhancing activity for NGF production in L-M cells (NGF in culture medium by enzyme immunoassay)", "assay_type": "cell-based, murine", "settings": "20 hours; for Amount of NGF Production (%): control = 100%", "procedure": "(2) The enhancing activity for NGF production of the compound a was assayed. L-M cells (ATCC CCL-1.2) from murine fibroblasts were suspended in an M199 medium (manufactured by Bio Whittaker) containing 0.5% bactopeptone (manufactured by Gibco) so as to have a concentration of 1.5×10^5 cells/mL. The suspension was put in a 96 well plate in an amount of 0.1 mL each well, and the cells were aseptically cultured. After culturing the cells for 3 days, the medium was removed therefrom, and exchanged with an M199 medium containing 0.5% bovine serum albumin (manufactured by Sigma). The compound a was added thereto, and the cells were cultured for 20 hours. After the termination of the culture, the concentration of NGF in the culture medium was assayed by an enzyme immunoassay method (NGF Emax Immuno Assay System, manufactured by Promega). The experiment was carried out twice, and an average value was taken. […] The amount of NGF production of the control was 0.739 ng/mL. As to the control, the concentration in the culture medium was determined in the same manner except that the compound a was not added. It is the same as that of the following examples."}, "mouse": {"system": "mouse", "experiment": "Oral toxicity in mouse", "assay_type": "in vivo", "settings": "mouse (male, 6-week old), orally administered at 1000 mg per kg body weight"}}}
{"smiles": "CC1(C)CC(=O)C2(C)CCC3(C)C(=CCC4C5(C)CCC(OC6OC(C(=O)O)C(O)C(O)C6OC6OC(CO)C(O)C(O)C6OC6OC(CO)C(O)C(O)C6O)C(C)(CO)C5CCC43C)C2C1", "note": "[Compound k, 3-O-[β-D-glucopyranosyl(1→2)-β-D-galactopyranosyl-(1→2)-β-D-glucuronopyranosyl]-soyasapogenol E]", "values": [{"measurement": "enhancing activity for NGF production (result in words)", "setting": "NGF", "value": "has enhancing activity for NGF production"}, {"measurement": "Amount of NGF Production (%)", "setting": "NGF; Concentration of Sample 1.0 mM", "value": 115.9, "unit": "%"}, {"measurement": "Amount of NGF Production (%)", "setting": "NGF; Concentration of Sample 2 mM", "value": 456.3, "unit": "%"}]}
{"smiles": "CC1OC(OC2C(OC3C(OC4CCC5(C)C(CCC6(C)C5CC=C5C7CC(C)(C)CC(=O)C7(C)CCC56C)C4(C)CO)OC(C(=O)O)C(O)C3O)OC(CO)C(O)C2O)C(O)C(O)C1O", "note": "[Compound l, 3-O-[α-L-rhamnopyranosyl(1→2)-β-D-galactopyranosyl-(1→2)-β-D-glucuronopyranosyl]-soyasapogenol E]", "values": [{"measurement": "enhancing activity for NGF production (result in words)", "setting": "NGF", "value": "has enhancing activity for NGF production"}, {"measurement": "Amount of NGF Production (%)", "setting": "NGF; Concentration of Sample 1.0 mM", "value": 145.9, "unit": "%"}, {"measurement": "Amount of NGF Production (%)", "setting": "NGF; Concentration of Sample 2 mM", "value": 531.2, "unit": "%"}]}
{"smiles": "CC(=O)OC1COC(OC2C(O)COC(OC3C(O)C(C)(C)CC4C5=CCC6C7(C)CCC(OC8OC(C(=O)O)C(O)C(O)C8OC8OC(CO)C(O)C(O)C8OC8OC(CO)C(O)C(O)C8O)C(C)(CO)C7CCC6(C)C5(C)CCC43C)C2O)C(OC(C)=O)C1OC(C)=O", "note": "[Compound m, 3-O-[β-D-glucopyranosyl(1→2)-β-D-galactopyranosyl-(1→2)-β-D-glucuronopyranosyl]-22-O-[2,3,4-tri-O-acetyl-β-D-xylopyranosyl(1→3)-α-L-arabinopyranosyl]soyasapogenol A]", "values": [{"measurement": "enhancing activity for NGF production (result in words)", "setting": "NGF", "value": "has enhancing activity for NGF production"}, {"measurement": "Amount of NGF Production (%)", "setting": "NGF; Concentration of Sample 0.5 mM", "value": 263.3, "unit": "%"}, {"measurement": "Amount of NGF Production (%)", "setting": "NGF; Concentration of Sample 1.0 mM", "value": 250.9, "unit": "%"}, {"measurement": "Amount of NGF Production (%)", "setting": "NGF; Concentration of Sample 2 mM", "value": 233.4, "unit": "%"}]}
{"smiles": "CC1(C)CC2=C3CC[C@@H]4[C@@]5(C)CCC(O)[C@](C)(CO)[C@@H]5CC[C@@]4(C)[C@]3(C)CC[C@@]2(C)C(O)C1", "note": "(stereo partly drawn) [Compound n, 13(18)-oleanene-3,22,24-triol]", "values": [{"measurement": "enhancing activity for NGF production (result in words)", "setting": "NGF", "value": "has enhancing activity for NGF production"}, {"measurement": "Amount of NGF Production (%)", "setting": "NGF; Table 3: Concentration of Sample 25 mM", "value": 197.9, "unit": "%"}, {"measurement": "Amount of NGF Production (%)", "setting": "NGF; Table 3: Concentration of Sample 50 mM", "value": 522.6, "unit": "%"}]}
{"smiles": "CC1(C)[C@@H](O[C@H]2O[C@H](C(=O)O)[C@@H](O)[C@H](O)[C@H]2O[C@@H]2O[C@H](C(=O)O)[C@@H](O)[C@H](O)[C@H]2O)CC[C@]2(C)[C@H]3C(=O)C=C4[C@@H]5C[C@@](C)(C(=O)O)CC[C@]5(C)CC[C@@]4(C)[C@]3(C)CC[C@@H]12", "note": "[Glycyrrhizin, glycyrrhizin, reference compound]", "values": [{"measurement": "toxicity", "setting": "mouse", "value": "no toxicity is found"}, {"measurement": "enhancing activity for NGF production (result in words)", "setting": "NGF", "value": "has enhancing activity for NGF production"}, {"measurement": "Amount of NGF Production (%)", "setting": "NGF; Table 4: Concentration of Sample 0.25 mM", "value": 113.0, "unit": "%"}, {"measurement": "Amount of NGF Production (%)", "setting": "NGF; Table 4: Concentration of Sample 0.5 mM", "value": 204.3, "unit": "%"}, {"measurement": "Amount of NGF Production (%)", "setting": "NGF; Table 4: Concentration of Sample 1.0 mM", "value": 261.0, "unit": "%"}]}
